Results on 8 compounds are retold here after US9340590B2 (priority 2011, dated 2016).

In one experiment the target is hNav1.5 (Homo sapiens, UniProt Q14524). Description: cell-based.
For another experiment, the target named is hNav1.7 (Homo sapiens, UniProt Q15858). Description: cell-based. Conditions: Nav1.7 Use IC50.

Molecules are shown by their SMILES. Positions of bridges follow the written chain, without caps; N, C: chain ends. Non-standard residues stand in square brackets, D forms with d. Residues, ends and D or L forms follow the SMILES beside them. Phe(4-guanidino) = N=C(N)Nc1ccc(C[C@H](N)C(=O)O)cc1; hCit = NC(=O)NCCCC[C@H](N)C(=O)O; Pra = C#CC[C@H](N)C(=O)O; Dab = NCC[C@H](N)C(=O)O

By IC50 is commonly meant the concentration needed to halve the response being measured.

hNav1.7, sequence (Q15858 whole entry, looked up): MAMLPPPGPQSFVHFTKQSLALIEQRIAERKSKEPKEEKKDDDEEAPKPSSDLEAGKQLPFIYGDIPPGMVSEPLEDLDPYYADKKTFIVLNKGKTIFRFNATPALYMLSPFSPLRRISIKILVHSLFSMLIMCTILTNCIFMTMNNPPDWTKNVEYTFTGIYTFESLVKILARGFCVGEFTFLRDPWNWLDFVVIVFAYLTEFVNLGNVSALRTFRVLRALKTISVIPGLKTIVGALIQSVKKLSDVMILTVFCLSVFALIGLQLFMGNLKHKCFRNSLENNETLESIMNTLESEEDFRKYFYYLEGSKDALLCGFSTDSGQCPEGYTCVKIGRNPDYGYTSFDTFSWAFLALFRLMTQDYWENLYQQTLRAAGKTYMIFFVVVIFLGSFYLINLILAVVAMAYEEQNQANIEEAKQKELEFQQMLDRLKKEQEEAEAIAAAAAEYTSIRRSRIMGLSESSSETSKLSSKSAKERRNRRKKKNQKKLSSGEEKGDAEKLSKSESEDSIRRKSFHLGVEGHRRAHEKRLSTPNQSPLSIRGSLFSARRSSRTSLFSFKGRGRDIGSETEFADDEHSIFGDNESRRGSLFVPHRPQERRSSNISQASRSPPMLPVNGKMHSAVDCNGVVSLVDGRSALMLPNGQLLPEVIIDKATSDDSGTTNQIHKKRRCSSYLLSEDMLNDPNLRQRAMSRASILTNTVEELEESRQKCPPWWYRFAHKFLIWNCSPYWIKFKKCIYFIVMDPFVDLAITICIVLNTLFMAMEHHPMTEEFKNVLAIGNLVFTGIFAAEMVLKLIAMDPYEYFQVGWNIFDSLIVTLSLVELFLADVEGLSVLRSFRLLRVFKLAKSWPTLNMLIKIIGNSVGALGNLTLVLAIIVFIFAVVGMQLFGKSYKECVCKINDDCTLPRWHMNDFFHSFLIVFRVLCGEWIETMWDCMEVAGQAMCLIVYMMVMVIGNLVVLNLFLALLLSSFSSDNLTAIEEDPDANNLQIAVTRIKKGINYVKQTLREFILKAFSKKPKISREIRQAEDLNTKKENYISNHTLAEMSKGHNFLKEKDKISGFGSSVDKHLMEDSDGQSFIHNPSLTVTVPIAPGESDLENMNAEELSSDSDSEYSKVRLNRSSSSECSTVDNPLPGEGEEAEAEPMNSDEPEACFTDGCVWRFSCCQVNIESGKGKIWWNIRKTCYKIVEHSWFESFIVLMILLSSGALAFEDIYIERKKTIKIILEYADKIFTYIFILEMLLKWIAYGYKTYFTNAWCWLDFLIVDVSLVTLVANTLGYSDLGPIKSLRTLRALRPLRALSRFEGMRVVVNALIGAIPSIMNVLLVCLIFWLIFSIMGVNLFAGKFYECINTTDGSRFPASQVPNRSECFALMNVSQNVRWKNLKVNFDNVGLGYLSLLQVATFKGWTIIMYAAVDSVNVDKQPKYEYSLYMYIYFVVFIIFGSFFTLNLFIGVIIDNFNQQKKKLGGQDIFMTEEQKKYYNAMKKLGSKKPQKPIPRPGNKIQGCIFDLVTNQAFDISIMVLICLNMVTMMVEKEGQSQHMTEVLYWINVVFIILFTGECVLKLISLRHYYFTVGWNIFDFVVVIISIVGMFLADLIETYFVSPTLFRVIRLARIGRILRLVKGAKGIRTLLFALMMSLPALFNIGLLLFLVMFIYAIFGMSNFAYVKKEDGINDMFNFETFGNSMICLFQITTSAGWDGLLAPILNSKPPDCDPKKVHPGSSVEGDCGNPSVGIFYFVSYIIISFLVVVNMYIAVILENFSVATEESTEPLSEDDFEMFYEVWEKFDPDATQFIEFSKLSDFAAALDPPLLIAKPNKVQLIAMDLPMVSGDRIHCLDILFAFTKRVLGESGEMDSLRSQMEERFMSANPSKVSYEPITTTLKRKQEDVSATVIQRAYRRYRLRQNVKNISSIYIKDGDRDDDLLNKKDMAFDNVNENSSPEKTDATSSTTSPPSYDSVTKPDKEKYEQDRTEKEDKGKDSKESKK
hNav1.5, sequence (Q14524 whole entry, looked up): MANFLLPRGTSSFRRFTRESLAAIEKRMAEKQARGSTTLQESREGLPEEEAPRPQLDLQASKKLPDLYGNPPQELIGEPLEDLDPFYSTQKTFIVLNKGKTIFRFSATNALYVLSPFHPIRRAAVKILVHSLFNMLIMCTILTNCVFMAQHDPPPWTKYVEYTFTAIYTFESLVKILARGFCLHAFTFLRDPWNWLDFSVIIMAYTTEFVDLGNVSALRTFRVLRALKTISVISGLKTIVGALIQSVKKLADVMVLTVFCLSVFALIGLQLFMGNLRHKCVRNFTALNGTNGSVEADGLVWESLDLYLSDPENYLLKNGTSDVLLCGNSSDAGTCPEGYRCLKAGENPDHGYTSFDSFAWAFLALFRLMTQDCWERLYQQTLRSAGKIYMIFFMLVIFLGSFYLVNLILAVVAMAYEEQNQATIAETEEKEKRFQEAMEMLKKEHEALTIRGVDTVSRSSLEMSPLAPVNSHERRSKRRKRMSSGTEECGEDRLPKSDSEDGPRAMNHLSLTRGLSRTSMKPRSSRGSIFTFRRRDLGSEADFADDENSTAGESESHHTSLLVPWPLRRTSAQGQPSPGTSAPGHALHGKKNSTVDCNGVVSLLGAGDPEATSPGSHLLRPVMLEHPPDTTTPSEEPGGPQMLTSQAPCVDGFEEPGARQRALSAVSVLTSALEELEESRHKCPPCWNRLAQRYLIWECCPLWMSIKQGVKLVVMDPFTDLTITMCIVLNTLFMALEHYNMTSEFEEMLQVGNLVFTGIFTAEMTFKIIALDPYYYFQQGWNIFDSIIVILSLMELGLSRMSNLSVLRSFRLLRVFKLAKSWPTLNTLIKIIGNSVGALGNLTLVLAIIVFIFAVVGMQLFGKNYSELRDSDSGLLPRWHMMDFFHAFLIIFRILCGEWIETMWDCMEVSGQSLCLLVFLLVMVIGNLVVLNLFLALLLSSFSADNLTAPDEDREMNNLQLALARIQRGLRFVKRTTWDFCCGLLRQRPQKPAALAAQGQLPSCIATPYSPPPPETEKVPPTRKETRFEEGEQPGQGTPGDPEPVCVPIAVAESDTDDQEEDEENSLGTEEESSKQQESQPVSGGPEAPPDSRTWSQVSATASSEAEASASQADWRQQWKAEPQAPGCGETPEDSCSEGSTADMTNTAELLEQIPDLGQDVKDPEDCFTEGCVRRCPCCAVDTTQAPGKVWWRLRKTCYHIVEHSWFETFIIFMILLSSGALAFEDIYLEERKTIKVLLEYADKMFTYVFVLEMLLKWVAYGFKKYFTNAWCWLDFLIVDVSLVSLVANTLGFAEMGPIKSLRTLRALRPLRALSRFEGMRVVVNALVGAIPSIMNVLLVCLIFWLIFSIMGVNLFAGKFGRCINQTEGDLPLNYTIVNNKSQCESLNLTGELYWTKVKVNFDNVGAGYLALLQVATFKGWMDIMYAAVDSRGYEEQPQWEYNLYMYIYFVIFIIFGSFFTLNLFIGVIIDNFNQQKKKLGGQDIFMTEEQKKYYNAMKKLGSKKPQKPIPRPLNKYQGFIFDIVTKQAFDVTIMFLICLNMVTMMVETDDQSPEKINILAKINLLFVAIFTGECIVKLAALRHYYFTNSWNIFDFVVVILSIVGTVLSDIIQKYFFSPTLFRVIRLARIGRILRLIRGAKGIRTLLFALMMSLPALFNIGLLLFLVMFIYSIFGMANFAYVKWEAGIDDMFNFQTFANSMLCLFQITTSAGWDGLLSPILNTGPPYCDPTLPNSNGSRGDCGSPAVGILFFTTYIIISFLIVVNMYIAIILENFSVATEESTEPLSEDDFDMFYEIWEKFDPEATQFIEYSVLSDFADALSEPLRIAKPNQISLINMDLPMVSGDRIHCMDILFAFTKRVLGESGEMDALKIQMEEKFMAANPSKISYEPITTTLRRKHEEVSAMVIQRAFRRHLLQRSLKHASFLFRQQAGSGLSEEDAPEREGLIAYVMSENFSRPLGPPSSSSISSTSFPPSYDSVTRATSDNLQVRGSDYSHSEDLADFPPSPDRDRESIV

On to `CC[C@H](C)[C@@H]1NC(=O)[C@@H]2CSSC[C@@H]3NC(=O)[C@H](C(C)C)NC(=O)[C@H](CC(C)C)NC(=O)[C@H](CC(N)=O)NC(=O)[C@@H]4CCCN4C(=O)[C@H](CCCNC(=N)N)NC(=O)[C@H](CSSC[C@H](NC(=O)[C@@H](N)CC(=O)O)C(=O)N[C@@H](CC(C)C)C(=O)NCC(=O)N[C@@H](C)C(=O)N[C@@H](CCSC)C(=O)N[C@@H](CCCNC(=N)N)C(=O)N[C@@H](CCCCN)C(=O)N2)NC(=O)[C@H](CSSC[C@@H](C(=O)N[C@@H](CCCCN)C(=O)N[C@@H](Cc2ccc(O)cc2)C(=O)N[C@H](C(=O)N[C@@H](Cc2ccccc2)C(N)=O)C(C)C)NC(=O)[C@H](Cc2c[nH]c4ccccc24)NC(=O)[C@H](CCN)NC(=O)[C@H](Cc2c[nH]cn2)NC(=O)[C@H]([C@@H](C)O)NC(=O)[C@H](CCCNC(=N)N)NC(=O)[C@H](CO)NC3=O)NC(=O)[C@H](CCCCN)NC(=O)[C@H](CC(=O)O)NC(=O)[C@H](CC(N)=O)NC(=O)[C@H](CC(=O)O)NC(=O)[C@@H]2CCCN2C1=O` [[Ala5;Dab28]GpTx-1(1-34)] (H-DCLGAMRKCIPDNDKCCRPNLVCSRTH[Dab]WCKYVF-NH2; disulfide 2-17, 9-23, 16-30), for which the IC50 on hNav1.5 is more than 10000 nM; against hNav1.7, 13 nM.

As for `CC[C@H](C)[C@@H]1NC(=O)[C@@H]2CSSC[C@@H]3NC(=O)[C@H](C(C)C)NC(=O)[C@H](CC(C)C)NC(=O)[C@H](CC(N)=O)NC(=O)[C@@H]4CCCN4C(=O)[C@H](CCCNC(=N)N)NC(=O)[C@H](CSSC[C@H](NC(=O)[C@@H](N)CC(=O)O)C(=O)N[C@@H](CC(C)C)C(=O)NCC(=O)N[C@@H](C)C(=O)N[C@@H](CCSC)C(=O)N[C@@H](CCCNC(=N)N)C(=O)N[C@@H](CCCCN)C(=O)N2)NC(=O)[C@H](CSSC[C@@H](C(=O)N[C@@H](CCCCN)C(=O)N[C@@H](Cc2ccc(O)cc2)C(=O)N[C@H](C(=O)N[C@@H](Cc2ccccc2)C(N)=O)C(C)C)NC(=O)[C@H](Cc2c[nH]c4ccccc24)NC(=O)[C@H](CCC(N)=O)NC(=O)[C@H](Cc2c[nH]cn2)NC(=O)[C@H]([C@@H](C)O)NC(=O)[C@H](CCCNC(=N)N)NC(=O)[C@H](CO)NC3=O)NC(=O)[C@H](CCCCN)NC(=O)[C@H](CC(=O)O)NC(=O)[C@H](CC(N)=O)NC(=O)[C@H](CC(=O)O)NC(=O)[C@@H]2CCCN2C1=O` [[Ala5;Gln28]GpTx-1(1-34)] (H-DCLGAMRKCIPDNDKCCRPNLVCSRTHQWCKYVF-NH2; disulfide 2-17, 9-23, 16-30), the IC50 on hNav1.5 was more than 10000 nM; against hNav1.7 it was 37 nM.

Turning to `CC[C@H](C)[C@@H]1NC(=O)[C@@H]2CSSC[C@@H]3NC(=O)[C@H](C(C)C)NC(=O)[C@H](CC(C)C)NC(=O)[C@H](CC(N)=O)NC(=O)[C@@H]4CCCN4C(=O)[C@H](CCCNC(=N)N)NC(=O)[C@H](CSSC[C@H](NC(=O)[C@@H](N)CC(=O)O)C(=O)N[C@@H](CC(C)C)C(=O)NCC(=O)N[C@@H](C)C(=O)N[C@@H](CCSC)C(=O)N[C@@H](CCCNC(=N)N)C(=O)N[C@@H](CCCCN)C(=O)N2)NC(=O)[C@H](CSSC[C@@H](C(=O)N[C@@H](CCCCN)C(=O)N[C@@H](Cc2ccc(O)cc2)C(=O)N[C@H](C(=O)N[C@@H](Cc2ccccc2)C(N)=O)C(C)C)NC(=O)[C@H](Cc2c[nH]c4ccccc24)NC(=O)[C@H](CCC(=O)O)NC(=O)[C@H](Cc2c[nH]cn2)NC(=O)[C@H]([C@@H](C)O)NC(=O)[C@H](CCCNC(=N)N)NC(=O)[C@H](CO)NC3=O)NC(=O)[C@H](CCCCN)NC(=O)[C@H](CC(=O)O)NC(=O)[C@H](CC(N)=O)NC(=O)[C@H](CC(=O)O)NC(=O)[C@@H]2CCCN2C1=O` [[Ala5;Glu28]GpTx-1(1-34)], the IC50 is more than 10000 nM at hNav1.5 and 614 nM on hNav1.7.

On to `CC[C@H](C)[C@@H]1NC(=O)[C@@H]2CSSC[C@@H]3NC(=O)[C@H](C(C)C)NC(=O)[C@H](CC(C)C)NC(=O)[C@H](CC(N)=O)NC(=O)[C@@H]4CCCN4C(=O)[C@H](CCCNC(=N)N)NC(=O)[C@H](CSSC[C@H](NC(=O)[C@@H](N)CC(=O)O)C(=O)N[C@@H](CC(C)C)C(=O)NCC(=O)N[C@@H](C)C(=O)N[C@@H](CCSC)C(=O)N[C@@H](CCCNC(=N)N)C(=O)N[C@@H](CCCCN)C(=O)N2)NC(=O)[C@H](CSSC[C@@H](C(=O)N[C@@H](CCCCN)C(=O)N[C@@H](Cc2ccc(O)cc2)C(=O)N[C@H](C(=O)N[C@@H](Cc2ccccc2)C(N)=O)C(C)C)NC(=O)[C@H](Cc2c[nH]c4ccccc24)NC(=O)[C@H](Cc2ccc(NC(=N)N)cc2)NC(=O)[C@H](Cc2c[nH]cn2)NC(=O)[C@H]([C@@H](C)O)NC(=O)[C@H](CCCNC(=N)N)NC(=O)[C@H](CO)NC3=O)NC(=O)[C@H](CCCCN)NC(=O)[C@H](CC(=O)O)NC(=O)[C@H](CC(N)=O)NC(=O)[C@H](CC(=O)O)NC(=O)[C@@H]2CCCN2C1=O` [[Ala5;Guf28]GpTx-1(1-34)] (H-DCLGAMRKCIPDNDKCCRPNLVCSRTH[Phe(4-guanidino)]WCKYVF-NH2; disulfide 2-17, 9-23, 16-30), for which the IC50 against hNav1.5 is more than 10000 nM; against hNav1.7 it was 5 nM.

Consider `CC[C@H](C)[C@@H]1NC(=O)[C@@H]2CSSC[C@@H]3NC(=O)[C@H](C(C)C)NC(=O)[C@H](CC(C)C)NC(=O)[C@H](CC(N)=O)NC(=O)[C@@H]4CCCN4C(=O)[C@H](CCCNC(=N)N)NC(=O)[C@H](CSSC[C@H](NC(=O)[C@@H](N)CC(=O)O)C(=O)N[C@@H](CC(C)C)C(=O)NCC(=O)N[C@@H](C)C(=O)N[C@@H](CCSC)C(=O)N[C@@H](CCCNC(=N)N)C(=O)N[C@@H](CCCCN)C(=O)N2)NC(=O)[C@H](CSSC[C@@H](C(=O)N[C@@H](CCCCN)C(=O)N[C@@H](Cc2ccc(O)cc2)C(=O)N[C@H](C(=O)N[C@@H](Cc2ccccc2)C(N)=O)C(C)C)NC(=O)[C@H](Cc2c[nH]c4ccccc24)NC(=O)[C@H](CCCCNC(N)=O)NC(=O)[C@H](Cc2c[nH]cn2)NC(=O)[C@H]([C@@H](C)O)NC(=O)[C@H](CCCNC(=N)N)NC(=O)[C@H](CO)NC3=O)NC(=O)[C@H](CCCCN)NC(=O)[C@H](CC(=O)O)NC(=O)[C@H](CC(N)=O)NC(=O)[C@H](CC(=O)O)NC(=O)[C@@H]2CCCN2C1=O` [[Ala5;HCit28]GpTx-1(1-34)] (H-DCLGAMRKCIPDNDKCCRPNLVCSRTH[hCit]WCKYVF-NH2; disulfide 2-17, 9-23, 16-30), for which the 50% inhibitory concentration (IC50) was more than 10000 nM on hNav1.5 and 25 nM against hNav1.7.

Turning to `CC[C@H](C)[C@@H]1NC(=O)[C@@H]2CSSC[C@@H]3NC(=O)[C@H](C(C)C)NC(=O)[C@H](CC(C)C)NC(=O)[C@H](CC(N)=O)NC(=O)[C@@H]4CCCN4C(=O)[C@H](CCCNC(=N)N)NC(=O)[C@H](CSSC[C@H](NC(=O)[C@@H](N)CC(=O)O)C(=O)N[C@@H](CC(C)C)C(=O)NCC(=O)N[C@@H](C)C(=O)N[C@@H](CCSC)C(=O)N[C@@H](CCCNC(=N)N)C(=O)N[C@@H](CCCCN)C(=O)N2)NC(=O)[C@H](CSSC[C@@H](C(=O)N[C@@H](CCCCN)C(=O)N[C@@H](Cc2ccc(O)cc2)C(=O)N[C@H](C(=O)N[C@@H](Cc2ccccc2)C(N)=O)C(C)C)NC(=O)[C@H](Cc2c[nH]c4ccccc24)NC(=O)[C@H](Cc2c[nH]cn2)NC(=O)[C@H](Cc2c[nH]cn2)NC(=O)[C@H]([C@@H](C)O)NC(=O)[C@H](CCCNC(=N)N)NC(=O)[C@H](CO)NC3=O)NC(=O)[C@H](CCCCN)NC(=O)[C@H](CC(=O)O)NC(=O)[C@H](CC(N)=O)NC(=O)[C@H](CC(=O)O)NC(=O)[C@@H]2CCCN2C1=O` [[Ala5;His28]GpTx-1(1-34)] (H-DCLGAMRKCIPDNDKCCRPNLVCSRTHHWCKYVF-NH2; disulfide 2-17, 9-23, 16-30), the values for the IC50 against hNav1.5 and against hNav1.7 were more than 10000 nM and 26 nM, respectively.

On to `C#CC[C@@H]1NC(=O)[C@H](CC(=O)O)NC(=O)[C@@H]2CCCN2C(=O)[C@H]([C@@H](C)CC)NC(=O)[C@@H]2CSSC[C@@H]3NC(=O)[C@H](C(C)C)NC(=O)[C@H](CC(C)C)NC(=O)[C@H](CC(N)=O)NC(=O)[C@@H]4CCCN4C(=O)[C@H](CCCNC(=N)N)NC(=O)[C@H](CSSC[C@H](NC(=O)[C@@H](N)CC(=O)O)C(=O)N[C@@H](CC(C)C)C(=O)NCC(=O)N[C@@H](C)C(=O)N[C@@H](CC(C)C)C(=O)N[C@@H](CCCNC(=N)N)C(=O)N[C@@H](CCCCN)C(=O)N2)NC(=O)[C@H](CSSC[C@@H](C(=O)N[C@@H](CCCCN)C(=O)N[C@@H](Cc2ccc(O)cc2)C(=O)N[C@H](C(=O)N[C@@H](Cc2ccccc2)C(N)=O)C(C)C)NC(=O)[C@H](Cc2c[nH]c4ccccc24)NC(=O)[C@H](CCCNC(=N)N)NC(=O)[C@H](Cc2c[nH]cn2)NC(=O)[C@H](CC(C)C)NC(=O)[C@H](CCCNC(=N)N)NC(=O)[C@H](CO)NC3=O)NC(=O)[C@H](CCCCN)NC(=O)[C@H](CC(=O)O)NC1=O` [[Ala5;Leu6,26;Pra13;Arg28]GpTx-1(1-34)] (H-DCLGALRKCIPD[Pra]DKCCRPNLVCSRLHRWCKYVF-NH2; disulfide 2-17, 9-23, 16-30), for which the IC50 against hNav1.5 is more than 10000 nM; at hNav1.7 it was 9 nM.

Regarding `CC(C)C[C@@H]1NC(=O)[C@H](C)NC(=O)CNC(=O)[C@H](CC(C)C)NC(=O)[C@@H](NC(=O)[C@@H](N)CC(=O)O)CSSC[C@@H]2NC(=O)[C@@H]3CSSC[C@@H](C(=O)N[C@@H](CCCCN)C(=O)N[C@@H](Cc4ccc(O)cc4)C(=O)N[C@H](C(=O)N[C@@H](Cc4ccccc4)C(N)=O)C(C)C)NC(=O)[C@H](Cc4c[nH]c5ccccc45)NC(=O)[C@H](CCCCN)NC(=O)[C@H](Cc4c[nH]cn4)NC(=O)[C@H]([C@@H](C)O)NC(=O)[C@H](CCCNC(=N)N)NC(=O)[C@H](CO)NC(=O)[C@H](CSSC[C@H](NC(=O)[C@H](CCCCN)NC(=O)[C@H](CCCNC(=N)N)NC1=O)C(=O)N[C@@H](CCC(=O)O)C(=O)N1CCC[C@H]1C(=O)N[C@@H](CC(=O)O)C(=O)N[C@@H](CC(N)=O)C(=O)N[C@@H](CC(=O)O)C(=O)N[C@@H](CCCCN)C(=O)N3)NC(=O)[C@H](C(C)C)NC(=O)[C@H](CC(C)C)NC(=O)[C@H](CC(N)=O)NC(=O)[C@@H]1CCCN1C(=O)[C@H](CCCNC(=N)N)NC2=O` [[Ala5;Leu6;Glu10]GpTx-1(1-34)], the values for the IC50 on hNav1.5 and on hNav1.7 were more than 10000 nM and 30 nM, respectively.
